Earlier results, collected in US20110104137A1, “ADJUNCTS AND COMPLEXES FOR IMPROVING HMG-CoA REDUCTASE INHIBITOR (STATIN) AND SELECTIVE PHOSPHODIESTERASE 5 INHIBITOR THERAPY” (ChronoRX LLC, an Alaska Limited Liability Company, priority 2009, published 2011).

What was measured:
[1] = oral L-CAR; placebo group 26.0%
Lp(a) = details: patients with otherwise elevated levels
NF-kappaB = details: in vitro and ex-vivo
[2] = in vivo
[3] = atorvastatin 80 mg versus pravastatin 40 mg, after ACS
PGI2 = details: administered therapeutic dose, humans
[4] = 12 months, IVUS
[5] = rosuvastatin 40 mg/d
ADMA = details: in vivo
[6] = no hyperlipidemia, elevated high-sensitivity CRP
CETP = target: T1, CETP (Homo sapiens, UniProt P11597)
T1 construct: Circulating CETP mediates the transfer of cholesteryl esters from HDL to LDL; host or cells: patients (endogenous plasma CETP, in vivo)
T1 sequence (P11597 18-493): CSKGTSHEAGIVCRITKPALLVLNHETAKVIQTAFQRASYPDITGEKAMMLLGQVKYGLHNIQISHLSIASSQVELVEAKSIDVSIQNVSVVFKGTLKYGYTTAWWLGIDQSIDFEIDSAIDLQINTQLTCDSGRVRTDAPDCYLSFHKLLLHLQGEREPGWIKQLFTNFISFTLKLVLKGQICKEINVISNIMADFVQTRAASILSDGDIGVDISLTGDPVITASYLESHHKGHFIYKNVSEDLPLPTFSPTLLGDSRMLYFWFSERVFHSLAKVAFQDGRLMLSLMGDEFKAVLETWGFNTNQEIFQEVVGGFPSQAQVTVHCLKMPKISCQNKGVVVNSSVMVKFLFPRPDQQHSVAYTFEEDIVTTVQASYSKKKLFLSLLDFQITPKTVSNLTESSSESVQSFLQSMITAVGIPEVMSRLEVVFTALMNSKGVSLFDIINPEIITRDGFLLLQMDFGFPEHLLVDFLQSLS

[7] = monotherapy and in combination with a statin

CC(=O)O[C@H](CC(=O)[O-])C[N+](C)(C)C [L-CAR, Acetyl-L-carnitine]
total cardiac events, including cardiac death and nonfatal infarction [1]: 15.6% | plasma Lp(a) (Lp(a)): reduce plasma Lp(a)

O=C(O)CCCCC1CCSS1 (stereo not shown) [LA, 1,2-dithiolane-3-pentanoic acid]
NF-kappaB activation (NF-kappaB): inhibits NF-kappaB activation

CC(C)c1c(C(=O)Nc2ccccc2)c(-c2ccccc2)c(-c2ccc(F)cc2)n1CC[C@@H](O)C[C@@H](O)CC(=O)O [atorvastatin]
interaction with warfarin [2]: potentiate warfarin | rate of hospitalization for HF [3]: significantly reduced the rate of hospitalization for HF | PGI2 signaling (PGI2): does not significantly decrease PGI2 signaling | progression of mean plaque volume or thickness ([4]; 131 patients, placebo 9.6): 1.2 mm^3 | hyperechogenicity of the plaque ([4]; compared to placebo): increased the hyperechogenicity of the plaque

CC[C@H](C)C(=O)O[C@H]1C[C@@H](C)C=C2C=C[C@H](C)[C@H](CC[C@@H]3C[C@@H](O)CC(=O)O3)[C@H]21 [lovastatin]
interaction with warfarin [2]: potentiate warfarin

CC(C)c1nc(N(C)S(C)(=O)=O)nc(-c2ccc(F)cc2)c1/C=C/[C@@H](O)C[C@@H](O)CC(=O)O [rosuvastatin]
interaction with warfarin [2]: potentiate warfarin | average LDL achieved ([5]; 349 patients): 60.8 mg/dL | increase in HDL ([5]; 349 patients): 14.7% | regression of atherosclerosis ([5]; intravascular ultrasound): significant regression of atherosclerosis | effect on plasma ADMA (ADMA): decrease in plasma ADMA | incidence of major cardiovascular events [6]: significantly reduced the incidence of major cardiovascular events

CCOC(=O)N1c2ccc(C(F)(F)F)cc2[C@@H](N(Cc2cc(C(F)(F)F)cc(C(F)(F)F)c2)C(=O)OC)C[C@H]1CC [torcetrapib]
mortality (CETP; mean follow-up of 550 days, cardiovascular and noncardiovascular causes): significant increase in mortality | HDL-CHOL levels (CETP; [7]): markedly increased HDL-CHOL levels | LDL-CHOL (CETP; [7]): reduced LDL-CHOL | mean particle size of HDL and LDL (CETP; [7]): increased the mean particle size of both HDL and of LDL
